# Laboratory results: publication PMC11357256, “Selectivity Screening and Structure–Cytotoxic Activity Observations of Selected Oleanolic Acid (OA)-Type Saponins from the Amaranthaceae Family on a Wiade Panel of Human Cancer Cell Lines” (Molecules, 2024)
# Legend:
# Du-145 = assay: MTT cell viability assay, Du-145 prostate carcinoma cells; format: cell-based; conditions: Homo sapiens
# From the text: (§1) Cell lines used in the study were grouped as follows: skin panel (melanomas: HTB140, derived from metastatic site: lymph node, ATCC Hs 294 T; malignant A375, ATCC CRL-1619; stage I primary WM793, RRID:CVCL 8787; skin keratinocytes HaCaT); prostate panel (prostate carcinomas: Du145, derived from metastatic site: brain, ATCC HTB-81; grade IV PC3, derived from metastatic site: bone, ATCC CRL-1435, LNCaP, derived from the metastatic site: lymph node, ATCC CRL-1740; prostate epithelial, PNT2, ECACC 95012613); gastrointestinal panel (colorectal adenocarcinomas: Caco2, ATCC HTB-37, HT29, ATCC HTB-38, DLD-1, ATCC CCL-221, HCT116, ATCC CCL-247, and colon epithelial cells CCD 841 CoN, ATCC CRL-1790; hepatocellular carcinoma HepG2, ATCC HB-8065); thyroid panel (follicular thyroid carcinoma FTC133, ECACC 9406090, undifferentiated thyroid carcinoma 8505C, ECACC 94090184, papillary thyroid carcinoma TPC-1, SCC147, normal thyroid follicular epithelial Nthy-ori 3–1, ECACC 90011609); and breast panel (ER-positive breast adenocarcinoma MCF7, ATCC HTB-22; ER-negative breast adenocarcinoma MDA-MB-231, ATCC HTB-26; breast epithelial MCF10A, ATCC CRL-10317). Cells were grown under standard conditions (37 °C, 5% CO2, relative humidity), and culture media (DMEM/F12 for PNT2, WM 793, HT29, PC3, FTC133, 8505 C, MDA-MB-231, TPC-1; DMEM Low Glucose for DU145; DMEM High Glucose for HTB140, A375, HaCaT; MEM with NEAA for Caco2 and MCF7; RPMI1640 with sodium pyruvate for LNCaP; DMEM/F12 with 20 ng/mL epidermal growth factor (EGF), 10 μg/mL insulin, 0.5 μg/mL hydrocortisone, 100 ng/mL cholera toxin) for MCF10A) supplemented with 10% fetal bovine serum (FBS) or 5% donor horse serum for MCF10A, and 1% antibiotics solution (10,000 U penicillin and 10 mg streptomycin/mL) […], as previously described. All cell lines, culture media, and supplements were from Sigma-Aldrich (Germany).
# (§2) The cells were seeded in 96-well plates (1.5 × 10^4 cells/well). After 24 h, fresh medium was added, containing the tested compounds (0.5–100 μg/mL) and incubated for 24 or 48 h. Cell viability was determined by MTT assay, according to the manufacturer’s instructions, as described previously. Each experiment was performed in triplicate. The absorbance was measured at 570 nm using a Biotek Synergy microplate reader (BioTek Instruments Inc., Winooski, VT, USA). Cell viability was expressed as a percent of control (untreated cells). Doxorubicin was used as a reference drug.
# PC3 = assay: MTT cell viability assay, PC3 prostate carcinoma cells; format: cell-based; conditions: Homo sapiens, PC-3
# From the text: as §1, §2
# LNCaP = assay: MTT cell viability assay, LNCaP prostate adenocarcinoma cells; format: cell-based; conditions: Homo sapiens
# From the text: as §1, §2
# PNT2 = assay: MTT cell viability assay, PNT2 normal prostate epithelial cells; format: cell-based; conditions: Homo sapiens
# From the text: as §1, §2
# MDA-MB-231 = assay: MTT cell viability assay, MDA-MB-231 breast adenocarcinoma cells; format: cell-based; conditions: Homo sapiens
# From the text: as §1, §2
# MCF7 = assay: MTT cell viability assay, MCF7 breast adenocarcinoma cells; format: cell-based; conditions: Homo sapiens
# From the text: as §1, §2
# MCF10A = assay: MTT cell viability assay, MCF10A normal breast epithelial cells; format: cell-based; conditions: Homo sapiens, MCF-10A
# From the text: as §1, §2
# FTC133 = assay: MTT cell viability assay, FTC133 follicular thyroid carcinoma cells; format: cell-based, human; conditions: for IC50: Homo sapiens, FTC-133
# From the text: as §1, §2
# (§3) The selectivity index (SI) was calculated from the following formula:SI = IC50 of compound in a normal cell line/IC50 of compound in cancer cell line.IC50, half maximal inhibitory concentration, is a concentration required to kill 50% of the cells.
# 8505C = assay: MTT cell viability assay, 8505C undifferentiated thyroid carcinoma cells; format: cell-based, human; conditions: Homo sapiens, 8505C
# From the text: as §1, §2, §3
# TPC-1 = assay: MTT cell viability assay, TPC-1 papillary thyroid carcinoma cells; format: cell-based, human; conditions: for IC50: Homo sapiens, TPC1
# From the text: as §1, §2, §3
# Nthy-ori 3-1 = assay: MTT cell viability assay, Nthy-ori 3-1 normal thyroid epithelial cells; format: cell-based; conditions: Homo sapiens
# From the text: as §1, §2
# Caco-2 = assay: MTT cell viability assay, Caco-2 colon cancer cells; format: cell-based; conditions: Homo sapiens
# From the text: as §1, §2
# HT29 = assay: MTT cell viability assay, HT29 colorectal adenocarcinoma cells; format: cell-based; conditions: Homo sapiens, HT-29
# From the text: as §1, §2
# HepG2 = assay: MTT cell viability assay, HepG2 hepatocellular carcinoma cells; format: cell-based; conditions: Homo sapiens
# From the text: as §1, §2
# DLD-1 = assay: MTT cell viability assay, DLD-1 colon cancer cells; format: cell-based; conditions: Homo sapiens
# From the text: as §1, §2
# HCT116 = assay: MTT cell viability assay, HCT116 colon cancer cells; format: cell-based; conditions: Homo sapiens, HCT-116
# From the text: as §1, §2
# CCD 841 CoN = assay: MTT cell viability assay, CCD 841 CoN normal colon epithelial cells; format: cell-based; conditions: Homo sapiens
# From the text: as §1, §2
# HTB-140 = assay: MTT cell viability assay, HTB-140 metastatic melanoma cells; format: cell-based, human; conditions: for IC50: Homo sapiens
# From the text: as §1, §2, §3
# A375 = assay: MTT cell viability assay, A375 malignant melanoma cells; format: cell-based, human; conditions: for IC50: Homo sapiens, A-375
# From the text: as §1, §2, §3
# WM793 = assay: MTT cell viability assay, WM793 primary melanoma cells; format: cell-based, human; conditions: for IC50: Homo sapiens
# From the text: as §1, §2, §3
# HaCaT = assay: MTT cell viability assay, HaCaT keratinocytes; format: cell-based; conditions: Homo sapiens
# From the text: as §1, §2
smiles,measurement,setting,value
"CC1(C)CC[C@]2(C(=O)O[C@@H]3O[C@H](CO)[C@@H](O)[C@H](O)[C@H]3O)CC[C@]3(C)C(=CC[C@@H]4[C@@]5(C)CC[C@H](O[C@@H]6O[C@H](C(=O)O)[C@@H](O)[C@H](O)[C@H]6O)C(C)(C)[C@@H]5CC[C@]43C)[C@@H]2C1 [ChIVa, 3-O-β-D-glucuronopyranosyl oleanolic acid 28-O-β-D-glucopyranosyl ester]",IC50,"Du-145; DU-145, 24 h",22.9 µg/mL
same,IC50,"Du-145; DU-145, 48 h",9.1 µg/mL
same,IC50,"PC3; PC3, 24 h",45.6 µg/mL
same,IC50,"PC3; PC3, 48 h",22.8 µg/mL
same,IC50,LNCaP; 24 h,> 100 µg/mL
same,IC50,LNCaP; 48 h,> 100 µg/mL
same,IC50,PNT2; 24 h,> 100 µg/mL
same,IC50,PNT2; 48 h,> 100 µg/mL
same,IC50,"MDA-MB-231; MDA-MB-231, 24 h",> 100 µg/mL
same,IC50,"MDA-MB-231; MDA-MB-231, 48 h",98.1 µg/mL
same,IC50,"MCF7; MCF7, 24 h",> 100 µg/mL
same,IC50,"MCF7; MCF7, 48 h",> 100 µg/mL
same,IC50,"MCF7; MCF7, MCF-7, incubation time not stated",> 100 µg/mL
same,IC50,MCF10A; 24 h,> 100 µg/mL
same,IC50,MCF10A; 48 h,> 100 µg/mL
same,IC50,"FTC133; FTC133, 24 h",8.5 µg/mL
same,IC50,"FTC133; FTC133, 48 h",4 µg/mL
same,Selectivity Index (SI),"FTC133; IC50 Nthy-ori 3-1 / IC50 FTC133, 24 h",> 11.76
same,Selectivity Index (SI),"FTC133; IC50 Nthy-ori 3-1 / IC50 FTC133, 48 h",> 25.1
same,IC50,8505C; 24 h,> 100 µg/mL
same,IC50,8505C; 48 h,> 100 µg/mL
same,IC50,"TPC-1; TPC-1, 24 h",> 100 µg/mL
same,IC50,"TPC-1; TPC-1, 48 h",81.8 µg/mL
same,Selectivity Index (SI),"TPC-1; IC50 Nthy-ori 3-1 / IC50 TPC-1, 48 h",> 1.2
same,IC50,Nthy-ori 3-1; 24 h,> 100 µg/mL
same,IC50,Nthy-ori 3-1; 48 h,> 100 µg/mL
same,IC50,"Caco-2; Caco-2, 24 h",69 µg/mL
same,IC50,"Caco-2; Caco-2, 48 h",15.8 µg/mL
same,IC50,"HT29; HT29, 24 h",14.9 µg/mL
same,IC50,"HT29; HT29, 48 h",5.6 µg/mL
same,IC50,"HepG2; HepG2, 24 h",30 µg/mL
same,IC50,"HepG2; HepG2, 48 h",20.9 µg/mL
same,IC50,"DLD-1; DLD-1, 24 h",> 100 µg/mL
same,IC50,"DLD-1; DLD-1, 48 h",50.3 µg/mL
same,IC50,"HCT116; HCT116, 24 h",> 100 µg/mL
same,IC50,"HCT116; HCT116, 48 h",78.2 µg/mL
same,IC50,CCD 841 CoN; 24 h,> 100 µg/mL
same,IC50,CCD 841 CoN; 48 h,> 100 µg/mL
same,IC50,"HTB-140; HTB-140, 24 h",15 µg/mL
same,IC50,"HTB-140; HTB-140, 48 h",8.7 µg/mL
same,Selectivity Index (SI),"HTB-140; IC50 HaCaT / IC50 HTB-140, 24 h",0.5
same,Selectivity Index (SI),"HTB-140; IC50 HaCaT / IC50 HTB-140, 48 h",0.4
same,IC50,"A375; A375, 24 h",1.6 µg/mL
same,IC50,"A375; A375, 48 h",0.6 µg/mL
same,Selectivity Index (SI),"A375; IC50 HaCaT / IC50 A375, 24 h",4.6
same,IC50,"WM793; WM793, 24 h",18.5 µg/mL
same,IC50,"WM793; WM793, 48 h",4.4 µg/mL
same,Selectivity Index (SI),"WM793; IC50 HaCaT / IC50 WM793, 24 h",0.4
same,Selectivity Index (SI),"WM793; IC50 HaCaT / IC50 WM793, 48 h",0.7
same,IC50,HaCaT; 24 h,7.3 µg/mL
same,IC50,HaCaT; 48 h,3.1 µg/mL
